Blank lines part the entries; values can stand above or below the compound they belong to.
What was measured:
Assay type in all cases: physicochemical
[1] = High temperature test (stability); conditions: for Appearance and color / Content / Drying loss / Related substances: 60° C. incubator; for Related substances: HPLC; for Stability in the high-temperature test (conclusion): 60° C., 10 days
Description: (§1) In the following test, related substances were determined as follows: HPLC method was used and chromatographic conditions were as follows: C18 column using octadecylsilane bonded silica gel as the filler, isocratic elution using methanol: 0.5% glacial acetic acid solution (10:90) as the mobile phase, and detection wavelength was at 254 nm.
Crystalline form A of Temozolomide (Form A0 prepared by the method of EXAMPLE 1) was placed in 60° C. incubator, sampled and determined on the 5th and 10th day.
Crystalline Form B of Temozolomide (Form B0 prepared by the method of EXAMPLE 6) was placed in 60° C. incubator, sampled and determined on the 5th and 10th day.
Crystalline Form C of Temozolomide (Form C prepared by the method of EXAMPLE 14) was placed in 60° C. incubator, sampled and determined on the 5th and 10th day.

[2] = Solubility test; conditions: for Amount of solvent for dissolving tested drug: about 10 mg tested drug
Description: It should be noted that each crystalline form of Form A, Form B and Form C has similar solubility properties. Hereinafter, Form A0, B0 and C were chosen only for illustrative purpose.
1. Solubility test of the crystalline Form A of Temozolomide (Form A0 prepared by the method of EXAMPLE 1). Solubility properties were assayed respectively by using DMSO, methanol, water, glacial acetic acid, 0.1M HCl, 0.1M NaOH and ethanol as the solvents.
2. Solubility test of the crystalline form B of Temozolomide (Form B0 prepared by the method of EXAMPLE 6). Solubility properties were assayed respectively by using DMSO, methanol, water, glacial acetic acid, 0.1M HCl, 0.1M NaOH and ethanol as the solvents.
3. Solubility test of the crystalline form C of Temozolomide (Form C prepared by the method of EXAMPLE 14). Solubility properties were assayed respectively by using DMSO, methanol, water, glacial acetic acid, 0.1M HCl, 0.1M NaOH and ethanol as the solvents.

[3] = Light exposure test (stability); conditions: for Stability in the light exposure test (conclusion): 4500±500Lx, 10 days; for Appearance and color / Content / Drying loss / Related substances: light intensity 4500±500Lx; for Related substances: HPLC
Description: as §1
Crystalline form A of Temozolomide (Form A0 prepared by the method of EXAMPLE 1) was exposed under conditions of light intensity of 4500±500Lx, sampled and determined on the 5th and 10th day.
Crystalline form B of Temozolomide (Form B0 prepared by the method of EXAMPLE 6) was placed, exposed under conditions of light intensity of 4500±500Lx, sampled and determined on the 5th and 10th day.
Crystalline Form C of Temozolomide (Form C prepared by the method of EXAMPLE 14) was placed, exposed under conditions of light intensity of 4500±500Lx, sampled and determined on the 5th and 10th day.

[4] = Accelerated test (stability); conditions: 40±2° C., relative humidity 75±5%; for Stability in the accelerated test (conclusion): 6 months; for Appearance and color / Content / Related substances: polyethylene film bag; for Related substances: HPLC
Description: as §1
Crystalline Form A of Temozolomide (Form A0 prepared by the method of EXAMPLE 1) was sealed by a polyethylene film bag, placed under conditions of 40±2° C. and a relative humidity of 75±5% for 6 months, sampled and determined at the end of the 1st,2nd, 3rd and 6th month.
Crystalline Form B of Temozolomide (Form B0 prepared by the method of EXAMPLE 6) was sealed with a polyethylene film bag and placed under conditions of 40±2° C. and a relative humidity of 75±5% for 6 months, sampled and determined at the end of the 1st, 2nd, 3rd and 6th month.
Crystalline Form C of Temozolomide (Form C prepared by the method of EXAMPLE 14) was sealed with a polyethylene film bag and placed under conditions of 40±2° C. and a relative humidity of 75±5% for 6 months, sampled and determined at the end of the 1st, 2nd, 3rd and 6th month.

[5] = Stability test, overall conclusions; conditions: light exposure, high-temperature, high-humidity and accelerated tests
Description: as §1
It should be noted that each crystalline form of Form A, Form B and Form C has similar stability properties. Hereinafter, Form A0, Form B0 and Form C were chosen only for illustrative purpose.

Appearance and color ([1]; 0th day): White powder
Content ([1]; 0th day): 99.97%
Drying loss ([1]; 0th day): 0.33%
Related substances ([1]; 0th day): Not detected
Appearance and color ([1]; 5th day): White powder
Content ([1]; 5th day): 99.73%
Drying loss ([1]; 5th day): 0.27%
Related substances ([1]; 5th day): Not detected
Appearance and color ([1]; 10th day): White powder
Content ([1]; 10th day): 99.61%
Drying loss ([1]; 10th day): 0.29%
Related substances ([1]; 10th day): Not detected
Stability in the high-temperature test (conclusion) [1]: stable
Amount of solvent for dissolving 1 g of tested drug ([2]; solvent 0.1M HCl): 800 mL
Solubility ([2]; solvent 0.1M HCl): Slightly soluble
Amount of solvent for dissolving tested drug ([2]; solvent 0.1M HCl): 8 mL
Amount of solvent for dissolving 1 g of tested drug ([2]; solvent 0.1M NaOH): 300 mL
Solubility ([2]; solvent 0.1M NaOH): Slightly soluble
Amount of solvent for dissolving tested drug ([2]; solvent 0.1M NaOH): 3 mL
Amount of solvent for dissolving 1 g of tested drug ([2]; solvent DMSO): 70 mL
Solubility ([2]; solvent DMSO): sparingly
Amount of solvent for dissolving tested drug ([2]; solvent DMSO): 0.6 mL
Amount of solvent for dissolving 1 g of tested drug ([2]; solvent Ethanol): 5700 mL
Solubility ([2]; solvent Ethanol): Very slightly
Amount of solvent for dissolving tested drug ([2]; solvent Ethanol): 57 mL
Amount of solvent for dissolving 1 g of tested drug ([2]; solvent Glacial acetic acid): 300 mL
Solubility ([2]; solvent Glacial acetic acid): Slightly soluble
Amount of solvent for dissolving tested drug ([2]; solvent Glacial acetic acid): 3.0 mL
Amount of solvent for dissolving 1 g of tested drug ([2]; solvent Methanol): 900 mL
Solubility ([2]; solvent Methanol): Slightly soluble
Amount of solvent for dissolving tested drug ([2]; solvent Methanol): 9.0 mL
Amount of solvent for dissolving 1 g of tested drug ([2]; solvent Water): 800 mL
Solubility ([2]; solvent Water): Slightly soluble
Amount of solvent for dissolving tested drug ([2]; solvent Water): 8.0 mL
Stability in the light exposure test (conclusion) [3]: stable
Appearance and color ([3]; 0th day): White powder
Content ([3]; 0th day): 99.97%
Drying loss ([3]; 0th day): 0.38%
Related substances ([3]; 0th day): Not detected
Appearance and color ([3]; 5th day): White powder
Content ([3]; 5th day): 99.92%
Drying loss ([3]; 5th day): 0.33%
Related substances ([3]; 5th day): Not detected
Appearance and color ([3]; 10th day): White powder
Content ([3]; 10th day): 99.95%
Drying loss ([3]; 10th day): 0.29%
Related substances ([3]; 10th day): Not detected
Stability in the accelerated test (conclusion) [4]: stable
Appearance and color ([4]; 0th month): White powder
Content ([4]; 0th month): 99.97%
Related substances ([4]; 0th month): Not detected
Appearance and color ([4]; 1st month): White powder
Content ([4]; 1st month): 99.71%
Related substances ([4]; 1st month): Not detected
Appearance and color ([4]; 2nd month): White powder
Content ([4]; 2nd month): 99.82%
Related substances ([4]; 2nd month): Not detected
Appearance and color ([4]; 3rd month): White powder
Content ([4]; 3rd month): 99.73%
Related substances ([4]; 3rd month): Not detected
Appearance and color ([4]; 6th month): White powder
Content ([4]; 6th month): 99.85%
Related substances ([4]; 6th month): Not detected
Change in the appearance and color, the drying loss, the content and the related substances [5]: no obvious change
Compound: Cn1nnc2c(C(N)=O)ncn2c1=O [Form B, Temozolomide]

Appearance and color ([1]; 0th day): White powder
Content ([1]; 0th day): 99.94%
Drying loss ([1]; 0th day): 0.41%
Related substances ([1]; 0th day): Not detected
Appearance and color ([1]; 5th day): White powder
Content ([1]; 5th day): 99.63%
Drying loss ([1]; 5th day): 0.38%
Related substances ([1]; 5th day): Not detected
Appearance and color ([1]; 10th day): White powder
Content ([1]; 10th day): 99.31%
Drying loss ([1]; 10th day): 0.34%
Related substances ([1]; 10th day): Not detected
Stability in the high-temperature test (conclusion) [1]: stable
Amount of solvent for dissolving 1 g of tested drug ([2]; solvent 0.1M HCl): 700 mL
Solubility ([2]; solvent 0.1M HCl): Slightly soluble
Amount of solvent for dissolving tested drug ([2]; solvent 0.1M HCl): 7 mL
Amount of solvent for dissolving 1 g of tested drug ([2]; solvent 0.1M NaOH): 300 mL
Solubility ([2]; solvent 0.1M NaOH): Slightly soluble
Amount of solvent for dissolving tested drug ([2]; solvent 0.1M NaOH): 3 mL
Amount of solvent for dissolving 1 g of tested drug ([2]; solvent DMSO): 70 mL
Solubility ([2]; solvent DMSO): sparingly
Amount of solvent for dissolving tested drug ([2]; solvent DMSO): 0.7 mL
Amount of solvent for dissolving 1 g of tested drug ([2]; solvent Ethanol): 5500 mL
Solubility ([2]; solvent Ethanol): Very slightly
Amount of solvent for dissolving tested drug ([2]; solvent Ethanol): 55 mL
Amount of solvent for dissolving 1 g of tested drug ([2]; solvent Glacial acetic acid): 300 mL
Solubility ([2]; solvent Glacial acetic acid): Slightly soluble
Amount of solvent for dissolving tested drug ([2]; solvent Glacial acetic acid): 3.0 mL
Amount of solvent for dissolving 1 g of tested drug ([2]; solvent Methanol): 700 mL
Solubility ([2]; solvent Methanol): Slightly soluble
Amount of solvent for dissolving tested drug ([2]; solvent Methanol): 7.0 mL
Amount of solvent for dissolving 1 g of tested drug ([2]; solvent Water): 800 mL
Solubility ([2]; solvent Water): Slightly soluble
Amount of solvent for dissolving tested drug ([2]; solvent Water): 8.0 mL
Stability in the light exposure test (conclusion) [3]: stable
Appearance and color ([3]; 0th day): White powder
Content ([3]; 0th day): 99.94%
Drying loss ([3]; 0th day): 0.35%
Related substances ([3]; 0th day): Not detected
Appearance and color ([3]; 5th day): White powder
Content ([3]; 5th day): 99.93%
Drying loss ([3]; 5th day): 0.33%
Related substances ([3]; 5th day): Not detected
Appearance and color ([3]; 10th day): White powder
Content ([3]; 10th day): 99.81%
Drying loss ([3]; 10th day): 0.39%
Related substances ([3]; 10th day): Not detected
Stability in the accelerated test (conclusion) [4]: stable
Appearance and color ([4]; 0th month): White powder
Content ([4]; 0th month): 99.94%
Related substances ([4]; 0th month): Not detected
Appearance and color ([4]; 1st month): White powder
Content ([4]; 1st month): 99.81%
Related substances ([4]; 1st month): Not detected
Appearance and color ([4]; 2nd month): White powder
Content ([4]; 2nd month): 99.64%
Related substances ([4]; 2nd month): Not detected
Appearance and color ([4]; 3rd month): White powder
Content ([4]; 3rd month): 99.92%
Related substances ([4]; 3rd month): Not detected
Appearance and color ([4]; 6th month): White powder
Content ([4]; 6th month): 99.62%
Related substances ([4]; 6th month): Not detected
Change in the appearance and color, the drying loss, the content and the related substances [5]: no obvious change
Compound: Cn1nnc2c(C(N)=O)ncn2c1=O [Form A, Temozolomide]
